Results on eleven molecules are retold here after patent publication US5202348A, “Thiarubrine antifungal agents” (The University of British Columbia, priority 1990, dated 1993).

≈ marks a conversion by molar mass, not a printed value. Where two headings read alike, the source gives them in different places.

Series [1] has as its system C. albicans. Put plainly: LC50 (24 hrs.), doses required to inhibit growth in 50%, different method. It counts as cell-based, Candida albicans. The conditions noted are these: for IC50: Candida albicans, 24 hrs. The source says:
Doses Required to Inhibit Growth of C. albicans
in 50% During 24 hrs. (ng/ml)

Series [2] deals with Aspergillus. Put plainly: Anti-Aspergillus activity (summary).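 Note: Letter grades where Y means active and y means less active.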 In kind it is cell-based. The note with it: Table 14.
In series [3] the test system is Candida. Nature of the series: Anti-Candida activity (summary).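 Note: Letter grades where Y means active and y means less active.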 In kind it is cell-based. The note with it: Table 14.
Series [4] has as its system bacteria. Put plainly: Anti-bacterial activity (summary). In kind it is cell-based. The note with it: Table 14.
In series [5] the test system is Aspergillus fumigatus. Nature of the series: Sensitivity of Aspergillus fumigatus, agar diffusion method. In kind it is cell-based. The note with it: disc diameter 6 mm, read-out: Zone of Growth Inhibition. The source says:
Results were obtained by agar diffusion method. Disc diameter - 6 mm. -* = no zone over disc diameter.
A general note: In agar diffusion tests the substance spreads into inoculated agar from a disc or well.

Series [6] has as its system P. aeruginosa. Put plainly: Growth inhibition of P. aeruginosa during 24 hours exposure. In kind it is cell-based, Pseudomonas aeruginosa. The note with it: 24 hours exposure, Table 4. As for the experimental part:
(§1) Doses inhibiting growth in 50% were estimated by plotting concentration o
(§2) a logarithmic scale and percent of growth inhibition for 24 hours exposur
(§3) on a probability scale.

Series [7] is described as follows: Growth inhibition of P815 mastocytoma during 24 hours exposure. The conditions noted are these: mouse, p815 cells. In kind it is cell-based, Mouse. As for the experimental part:
(§4) P815 = Mouse mastocytoma […]
as §2, §3

The test system of series [8] is P815. The description is as above. It counts as cell-based, Mouse. The note with it: 24 hours exposure. As for the experimental part:
as §4, §2, §3

Series [9] in a line: Growth inhibition of WEHI-3 during 24 hours exposure. In kind it is cell-based, Mouse. The note with it: mouse, wehi-3 cells; Table 2; read-out: Toxicity Index, LC50 WEHI-3 / LC50 C. albicans. As to the method: (§5) WEHl3 = Mouse myelomonocyte
as §1, §2, §3

Series [10] relates to WEHI-3. The description is as above. In kind it is cell-based, Mouse. The note with it: Mus musculus, WEHI-3; 24 hours exposure; Table 1; read-out: Concentration causing 50% growth inhibition. As for the experimental part:
as §5, §1, §2, §3

The test system of series [11] is E. coli. Nature of the series: Growth inhibition of E. coli during 24 hours exposure. It counts as cell-based, Escherichia coli. The note with it: 24 hours exposure, Table 4. As to the method: as §1, §2, §3
The test system of series [12] is P. aeruginosa. Nature of the series: Growth inhibition of P. aeruginosa during 24 hours exposure. In kind it is cell-based, Pseudomonas aeruginosa. The conditions noted are these: for Minimal concentration causing 100% growth inhibition: Table 3.
The subject of series [13] is C. albicans. Nature of the series: Growth inhibition of C. albicans during 24 hours exposure. In kind it is cell-based, Candida albicans. The note with it: 24 hours exposure, Table 3.
Series [14] relates to E. coli. Nature of the series: Growth inhibition of E. coli during 24 hours exposure. It counts as cell-based, Escherichia coli. The conditions noted are these: 24 hours exposure, Table 3.
The subject of series [15] is P815 mastocytoma. Nature of the series: LC50 (24 hrs.), doses required to inhibit growth in 50%, different method. In kind it is cell-based. The note with it: Mus musculus, P815, 24 h.
The test system of series [16] is 3T3. Put plainly: Growth inhibition of 3T3 during 24 hours exposure. It counts as cell-based, Mouse. The note with it: Mus musculus, NIH3T3; 24 hours exposure; Table 1; read-out: Concentration causing 50% growth inhibition. As for the experimental part: (§6) 3T3 = Mouse fibroblasts
as §1, §2, §3

Series [17] can be described thus: Growth inhibition of 3T3 during 24 hours exposure. It counts as cell-based, Mouse. The conditions noted are these: mouse, 3t3 cells; Table 2; read-out: Toxicity Index, LC50 3T3 / LC50 C. albicans. As for the experimental part:
as §6, §1, §2, §3

Series [18] has as its system C. albicans. Put plainly: Growth inhibition of C. albicans during 24 hours exposure. The conditions noted are these: 24 hours exposure; for IC50: Candida albicans. In kind it is cell-based, Candida albicans. As to the method:
as §1, §2, §3

Series [19] can be described thus: Growth inhibition of L1210 during 24 hours exposure. It counts as cell-based, Mouse. The conditions noted are these: mouse, l1210 cells; Table 2; read-out: Toxicity Index, LC50 L1210 / C. albicans. As to the method: (§7) L1210 = Mouse lymphocytic leukemia
as §1, §2, §3

In series [20] the test system is L1210. The description is as above. It counts as cell-based, Mouse. The conditions noted are these: Mus musculus, L1210; 24 hours exposure; Table 1; read-out: Concentration causing 50% growth inhibition. As to the method: as §7, §1, §2, §3
The test system of series [21] is murine cytomegalovirus. The note with it: only in presence of long wave ultraviolet radiation; cited from earlier work.
The test system of series [22] is murine cytomegalovirus and Sindbis virus. The conditions noted are these: phototoxic activity; cited from earlier work.
Series [23] concerns Sindbis virus. The note with it: only in presence of long wave ultraviolet radiation; cited from earlier work.
Series [24] has as its system above organisms, as well as CHO cells. The note with it: UV-A light required; cited from earlier work.
Setting [25] is: Table 7, read-out: LC50 (24 hrs.), dose required to inhibit growth in 50%.
Where [26] appears, read: Table 13, read-out: Lc50 24 hrs.

As a reminder, the zone of inhibition is the size of the clear area around the sample on an inoculated plate.

For the molecule `Clc1ccc(COC(Cn2ccnc2)c2ccc(Cl)cc2Cl)cc1` (stereo not drawn) [Econazole, reference compound], in series [1] (setting [25]), the IC50 came out at 0.056 µg/mL (≈ 0.147 µM).
As for `C=CC#CC1=CC=C(C#CC#CC)SS1` [Thiarubrine B, 3 (pent-3-yn-1-ynyl) 6 (3-buten-1-ynyl)-1,2-dithiacyclohexa-3,5-diene, reference compound], the Anti-Aspergillus entry in [2] is recorded as “Y”. The Anti-Candida result in series [3] is given as “Y”. The Anti-bacterial result in [4] was “Y”.
As for `C=C/C=C/C#CC1=CC=C(C#CC)SS1` [Thiarubrine C, reference compound], in series [2], the Anti-Aspergillus entry is reported as “Y”. Moreover, the Anti-Candida entry in series [3] is recorded as “Y”. Further, the Anti-bacterial entry in [4] is “Y”.
With `CC#CC1=CC=C(C#CC#CC(O)CO)SS1` (stereo not drawn) [Thiarubrine E], the Anti-Aspergillus entry in series [2] is “Y”. Also, in [5] (10 ng/disc), the zone of inhibition at 0.01 µg/disc is 17 mm. The zone of inhibition at 0.1 µg/disc in series [5] (100 ng/disc) turned out to be 36 mm. The zone of inhibition at 1 µg/disc in [5] (1,000 ng/disc) came out at 50 mm. In series [5] (10,000 ng/disc), the zone of inhibition at 10 µg/disc came out at 50 mm. Besides, the Anti-Candida result in series [3] is given as “Y”. Also, the IC50 in [6] (Pseudomonas aeruginosa, read-out: Minimal concentration causing 50% growth inhibition) amounted to 0.28 µg/mL (≈ 1.07 µM); in series [8] (Mus musculus, P815, Table 1, read-out: Concentration causing 50% growth inhibition) it was 0.024 µg/mL (≈ 0.0915 µM); in [8] (Mus musculus, P815, Table 4, read-out: Minimal concentration causing 50% growth inhibition), 0.024 µg/mL (≈ 0.0915 µM); in series [1] (setting [25]), 0.006 µg/mL (≈ 0.0229 µM); in series [10] it was 0.04 µg/mL (≈ 0.152 µM); in series [11] (Escherichia coli, read-out: Minimal concentration causing 50% growth inhibition), 0.015 µg/mL (≈ 0.0572 µM). The IC50 in series [15] (read-out: LC50 (24 hrs.), dose required to inhibit growth in 50%) was found to be 0.028 µg/mL (≈ 0.107 µM); in series [16], 0.12 µg/mL (≈ 0.457 µM); in [18] (Table 1, read-out: Concentration causing 50% growth inhibition), 0.0014 µg/mL (≈ 0.00534 µM); in series [18] (Table 4, read-out: Minimal concentration causing 50% growth inhibition), 0.0014 µg/mL (≈ 0.00534 µM); in series [20], 0.027 µg/mL (≈ 0.103 µM). The selectivity ratio at 24 h in series [7] (50% growth inhibition, Table 4, read-out: Ratio of concentration needed to inhibit growth in 50%, P815 vs C. albicans) came to 17; in series [7] (100% growth inhibition, Table 3, read-out: Ratio of minimal concentration causing 100% growth inhibition, P815 line vs C. albicans), 65; in series [7] (Table 2, read-out: Toxicity Index, LC50 P815 / LC50 C. albicans) it was 17; in series [9] it was 28; in series [17], 86; in [19], 19. For the same molecule, in series [8] (Mus musculus, P815, Table 3, read-out: Minimal concentration causing 100% growth inhibition), the IC100 amounted to 0.312 µg/mL. Besides, the “Inhibition of growth of Candida albicans” value in series [1] is “nanogram/ml range”. In addition, the MIC in [12] (Pseudomonas aeruginosa, Table 3, read-out: Minimal concentration causing 100% growth inhibition) worked out at 0.625 µg/mL (≈ 2.38 µM); in series [13] (Candida albicans, read-out: Minimal concentration causing 100% growth inhibition), 0.0048 µg/mL (≈ 0.0183 µM); in series [14] (Escherichia coli, read-out: Minimal concentration causing 100% growth inhibition) it was 0.019 µg/mL (≈ 0.0724 µM). Moreover, in series [4], the Anti-bacterial result is recorded as “Y”.
With `CC#CC1=CC=C(C#CC#CC(Cl)CO)SS1` (stereo not drawn) [Thiarubrine F], the Anti-Aspergillus entry in series [2] was “Y”. Moreover, the Anti-Candida result in [3] is given as “Y”. In addition, the “Inhibition of growth of Candida albicans” value in [1] is reported as “nanogram/ml range”. The IC50 in series [1] (setting [26]) is 0.006 µg/mL (≈ 0.0214 µM); in series [15] (read-out: Lc50 24 hrs.), 0.14 µg/mL (≈ 0.499 µM). Further, the Anti-bacterial entry in [4] was “Y”.
Turning to `CC#CC1=CC=C(C#CC#CC(O)CCl)SS1` (stereo not drawn) [Thiarubrine G], in series [2], the Anti-Aspergillus entry is on record as “Y”. The Anti-Candida result in series [3] was “Y”. Moreover, the “Inhibition of growth of Candida albicans” value in series [1] was “nanogram/ml range”. The IC50 in series [1] (setting [26]) is 0.008 µg/mL (≈ 0.0285 µM); in series [15] (read-out: Lc50 24 hrs.) it was 0.09 µg/mL (≈ 0.321 µM). For the same molecule, the Anti-bacterial result in series [4] is recorded as “Y”.
On to `C=CC#CC#CC1=CC=C(C#CCO)SS1` [Thiarubrine H], for which the Anti-Candida entry in series [3] is on record as “Y”. The “Inhibition of growth of Candida albicans” value in [1] is recorded as “nanogram/ml range”. Besides, the IC50 came out at 0.004 µg/mL (≈ 0.0164 µM) in series [1] (setting [26]) and 0.059 µg/mL (≈ 0.241 µM) in series [15] (read-out: Lc50 24 hrs.).
With `CC#Cc1ccc(C#CC#CC(O)CO)s1` (stereo not drawn) [Thiophene E], the “Minimal concentration causing 50% growth inhibition” value in series [6] was more than 5.0 µg/mL; in series [8] (Table 4) it was 4.0 µg/mL; in [11], more than 5.0 µg/mL; in series [18] (Table 4), 4.5 µg/mL. The “Minimal concentration causing 100% growth inhibition” value in series [8] (Table 3), in series [12], in series [13] and in series [14] was more than 5.0 µg/mL in each case.
Take `c1csc(-c2ccc(-c3cccs3)s2)c1` [alpha-terthienyl]: the Toxicity to virus result in series [21] and in [23] was “extremely toxic” in each case. The Order of potency result in [22] is “alpha-terthienyl thiarubrine-A > phenylheptatriyne > ACBP-thiophene > thiophene-A”.
Take `C=CC#CC#Cc1ccc(C#CC)s1` [thiophene A]: the Order of potency entry in series [22] is “alpha-terthienyl thiarubrine-A > phenylheptatriyne > ACBP-thiophene > thiophene-A”. For the same molecule, in [24], the Phototoxicity result was “phototoxic, requiring UV-A light for biological activity”.
Turning to Gentamycin [reference compound], the figures for the “Minimal concentration causing 50% growth inhibition” value in series [6] and in series [11] were 1.0 µg/mL and 0.37 µg/mL, respectively. The figures for the “Minimal concentration causing 100% growth inhibition” value in [12] and in series [14] were 2.5 µg/mL and 1.25 µg/mL, respectively.
